# Patent US6528049B2, “Bisexual attractants, aggregants and arrestants for adults and larvae of codling moth and other species of lepidoptera” (Trece, Inc., priority 1999, dated 2003)
# Test system: codling moth
# Test: Trap capture with proportional mixes of ethyl 2,4-decadienoate isomers
# Type: in vivo, Cydia pomonella
# Conditions: 1 mg dose/gray septum
# Description: Additionally, studies were performed to determine the attraction of codling moth to proportional mixes of (2E,4Z) and (2E,4E) isomers of ethyl 2,4-decadienoate and highly purified samples of each. Traps were baited with 1 mg dose/gray septum.
SMILES,Female CM Captured ♀♀/trap/night ± SEM,MALE CM Captured: ♂♂/trap/night ± SEM,Total CM Captured: CM/trap ± SEM [CM/trap]
"CCCCC/C=C/C=C/C(=O)OCC [Ethyl (2E,4E)-2,4-Decadienoate]",0.05 ± 0.05 ♀♀/trap/night,0.19 ± 0.05 ♂♂/trap/night,0.24 ± 0.10

# Test system: codling moth
# Test: Trap capture with purified (2E,4E) and (2E,4Z) 2,4-decadienoic acid esters
# Type: in vivo, Cydia pomonella
# Conditions: 1 mg dose/gray septum; four orchards; means of 21 trap checks
# Description: In this study, test compounds were highly purified synthetic samples. The purities of the compounds are expressed as percentages. Individual traps were baited with 1 mg dose/gray septum; five replicate blocks in four orchards; means of 21 total trap checks.
SMILES,FEMALE CM Captured: ♂♂/trap/night ± SEM,MALE CM Captured: ♂♂/trap/night ± SEM,Total CM Captured: CM/trap/night ± SEM [CM/trap/night]
"CCCCC/C=C\C=C\C(=O)OC [Methyl (2E,4Z)-2,4-Decadienoate]",0.41 ± 0.14 ♀♀/trap/night,0.12 ± 0.07 ♂♂/trap/night,0.54 ± 0.19
"CCCCC/C=C\C=C\C(=O)OCC [Ethyl (2E,4Z)-2,4-Decadienoate, #1 (95.3%)]",–,1.67 ± 0.41 ♂♂/trap/night,4.49 ± 1.29
"CCCCC/C=C/C=C/C(=O)OC(C)C [Isopropyl (2E,4E)-2,4-Decadienoate]",0.09 ± 0.04 ♀♀/trap/night,0.05 ± 0.02 ♂♂/trap/night,0.14 ± 0.05
"CCCCC/C=C/C=C/C(=O)OCC [Ethyl (2E,4E)-2,4-Decadienoate]",–,0.24 ± 0.06 ♂♂/trap/night,0.77 ± 0.20
"CCCCC/C=C\C=C\C(=O)OCCCCCC [Hexyl (2E,4Z)-2,4-Decadienoate (91. 6%), Hexyl (2E,4Z)-2,4-Decadienoate]",0.36 ± 0.18 ♀♀/trap/night,0.21 ± 0.09 ♂♂/trap/night,0.57 ± 0.22
"CCCCC/C=C/C=C/C(=O)OCCCC [Butyl (2E,4E)-2,4-Decadienoate]",0 ♀♀/trap/night,0.02 ± 0.02 ♂♂/trap/night,0.02 ± 0.02
"CCCCC/C=C/C=C/C(=O)OCCC [n-Propyl (2E,4E)-2,4-Decadienoate]",0.19 ± 0.07 ♀♀/trap/night,0.17 ± 0.13 ♂♂/trap/night,0.36 ± 0.19
"CCCCC/C=C\C=C\C(=O)OCCC [n-Propyl (2E,4Z)-2,4-Decadienoate]",1.12 ± 0.39 ♀♀/trap/night,0.49 ± 0.14 ♂♂/trap/night,1.61 ± 0.49

# Test system: codling moth
# Test: Field study of individual alcohols, aldehydes and esters
# Type: in vivo, Cydia pomonella
# Conditions: individual compounds typically of purity 90-98%
# Text: Attractive activity of these compounds for male and female codling moth was compared to purified ethyl (2E,4Z)-2,4-decadienoate.
# When the cumulative evaluation of all studied compounds and/or blends containing aldehyde, alcohol, ester and terpene compounds was made, the following results clearly confirmed the findings seen in Table 3.
row,SMILES,attractancy to male and female codling moth (in words)
1,"CCCCC/C=C\C=C\C(=O)OC [Methyl (2E,4Z)-2,4-Decadienoate]",most active
2,CCCCCCC/C=C/C(=O)OCC [ethyl (2E)-2-decenoate],most active
3,"CCCCCC=CC=CCO [(2,4)-2,4-decadien-1-ol]",very low male attractancy
4,CCCCCCC/C=C/COC(C)=O [(E)-2-decen-1-yl acetate],most active

# Test system: codling moth
# Test: Inherent attractancy field test of HPV blends in baited sticky traps in walnut orchard
# Type: in vivo, Cydia pomonella
# Conditions: field tests over a three month period
# Description: The blends listed in Table 2 were then field tested in walnut orchards for their attractancy to male and female codling moths, and also for enhancement with synthetic codling moth pheromone and other additives identified above. Their total capture (both males and females), and their individual male and female capture were determined and results obtained, were compared to insect capture obtained with purified individual ester, compound #25 namely ethyl (2E,4Z)-2,4-decadienoate, and to the codling moth male sex pheromone compound #26 in Table 3.
# Individual blends containing representative aldehyde, alcohol, ester, monoterpene or sesquiterpene blends were provided in the traps in 10 mg/white septa.
# Individual host-plant volatile (HPV) blends identified by the #1-23 in Table 3 were tested for codling moth attractancy in a walnut orchard, and the results were compared to the isolated purified ethyl (2E,4Z)-2,4-decadienoate (#25), to pheromone (#26) and to solvent controls (#24).
# Twenty-five HPV blends and eight individual compounds were field tested. One synthetic blend, “ester blend #10,” elicited excellent codling moth attraction. In field tests, the other tested blends (see Table 3) and compounds captured no moths over a three month period, except for an “apple-skin surface extract” (Golden Delicious, ether solvent) (Σ=3 codling moth captured, 1♂: 2♀♀) and the individual compound, (E,E)-α-farnesene (Σ=1♂ codling moth captured). The field tests are presented in Table 3 and show attraction specificity for HPV ester blend #10.
# Sticky traps (ICP and IIB traps, Trécé, Inc. Salinas, Calif.) were baited with either extracts, blends of HPVs, or individual HPVs (>95% purity) that evaporated from impregnated rubber septa. HPV blends, or individual HPV compounds, were diluted in hexane and pipetted onto rubber septa at approximate doses of 10 mg/septum. A single treatment septum was placed in each sticky wing-trap, and hung approximately six meters high in the outer walnut canopy. Trap liners and treatment HPV septa were replaced every 10-14 days and pheromone septa every month and tests were conducted throughout two summers.
# A replicated series of different HPV treatment traps, control “blank” (unbaited) trap, and a commercial pheromone-baited trap (Trécé, Inc.) were distributed 5 trees apart throughout two distant Hartley walnut orchards and validated in 12 walnut orchards. The orchards were distinct, with one using three summer insecticide sprays and the other had no spraying. Thus, these test orchards had low vs. moderate relative populations of codling moths. Significant effects on the gender of codling moths captured were judged by paired tests, either T-test or a nonparametric test.
row,SMILES,Σ codling moth captured
1,"C=C/C(C)=C/C/C=C(\C)CCC=C(C)C [(E,E)-α-farnesene]",1
